Values quoted from earlier work, collected in US20140154783A1, “BIOPROCESSING” (priority 2009, published 2014).

Tests used:
neuraminidase = conditions: influenza-infected MDCK cells; Barrere et al. 1997; read-out: Ki, reversible inhibition of neuraminidase
[1] = tested on: influenza A (avian plague virus); conditions: high concentrations; chick embryo fibroblasts infected with influenza A (avian plague virus); Klenk et al. 1972

| Compound | Ki (neuraminidase) [µM] | formation of hemagglutinin, neuraminidase, and mature virions [1] |
| --- | --- | --- |
| COc1cc(C(F)F)ccc1OC1(C(=O)O)CC(O)C(NC(C)=O)C(C(O)C(O)CO)O1 (stereo not drawn) [4-difluoromethyl-2-methoxy-phenyl-α-ketoside of N-acetylneuraminic acid] | 80 |  |
| O=CC[C@@H](O)[C@H](O)[C@H](O)CO [2-deoxy-D-glucose] |  | inhibited |
| N[C@H]1C(O)O[C@H](CO)[C@@H](O)[C@@H]1O (stereo partly drawn) [D-glucosamine] |  | inhibited |
